Laboratory results as given in ChEMBL document CHEMBL1132038, “L-770,644: a potent and selective human beta3 adrenergic receptor agonist with improved oral bioavailability” (Bioorg Med Chem Lett, 1999).

How the values were obtained:
[1] = target: T1, Beta-1 adrenergic receptor (Homo sapiens, UniProt P08588); assay: Agonistic activity against the cloned human Beta-1 adrenergic receptor was measured by its by its ability to stimulate adenylyl cyclase; format: functional
Target sequence in this assay (P08588 whole entry): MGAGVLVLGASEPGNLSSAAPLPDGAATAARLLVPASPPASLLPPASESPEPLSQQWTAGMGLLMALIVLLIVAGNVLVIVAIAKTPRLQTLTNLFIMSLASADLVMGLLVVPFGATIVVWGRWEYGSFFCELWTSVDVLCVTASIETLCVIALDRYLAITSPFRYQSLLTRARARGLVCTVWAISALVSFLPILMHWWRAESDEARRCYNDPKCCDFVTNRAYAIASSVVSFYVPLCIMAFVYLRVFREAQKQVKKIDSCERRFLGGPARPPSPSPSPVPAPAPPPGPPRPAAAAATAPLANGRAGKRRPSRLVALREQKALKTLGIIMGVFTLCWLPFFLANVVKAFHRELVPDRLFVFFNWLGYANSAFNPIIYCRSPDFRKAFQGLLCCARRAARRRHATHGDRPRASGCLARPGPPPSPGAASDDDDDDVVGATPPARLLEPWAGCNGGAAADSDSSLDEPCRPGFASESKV

[2] = target: T2, Beta-3 adrenergic receptor (Homo sapiens, UniProt P13945); assay: Adenylyl cyclase activation expressed as percent of maximal stimulation with isoproterenol at the cloned human Beta-3 adrenergic receptor at 10 uM; format: functional
Target sequence in this assay (P13945 whole entry, looked up): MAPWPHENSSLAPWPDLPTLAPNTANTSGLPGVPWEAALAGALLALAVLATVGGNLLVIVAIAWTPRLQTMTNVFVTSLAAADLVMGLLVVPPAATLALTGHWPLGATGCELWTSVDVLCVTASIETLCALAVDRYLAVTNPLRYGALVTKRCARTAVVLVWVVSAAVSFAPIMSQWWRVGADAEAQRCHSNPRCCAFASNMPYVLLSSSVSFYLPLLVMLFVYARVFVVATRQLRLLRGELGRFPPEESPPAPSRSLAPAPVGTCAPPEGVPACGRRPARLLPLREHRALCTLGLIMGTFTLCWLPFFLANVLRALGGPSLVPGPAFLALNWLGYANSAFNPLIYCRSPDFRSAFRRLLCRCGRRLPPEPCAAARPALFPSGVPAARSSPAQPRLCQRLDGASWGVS

[3] = target: T3, Beta-2 adrenergic receptor (Homo sapiens, UniProt P07550); assay: Inhibitory activity against cloned human Beta-2 adrenergic receptor in the presence of [125I]iodocyanopindolol in CHO cells by receptor binding assay; format: cell-based
Target sequence in this assay (P07550 whole entry): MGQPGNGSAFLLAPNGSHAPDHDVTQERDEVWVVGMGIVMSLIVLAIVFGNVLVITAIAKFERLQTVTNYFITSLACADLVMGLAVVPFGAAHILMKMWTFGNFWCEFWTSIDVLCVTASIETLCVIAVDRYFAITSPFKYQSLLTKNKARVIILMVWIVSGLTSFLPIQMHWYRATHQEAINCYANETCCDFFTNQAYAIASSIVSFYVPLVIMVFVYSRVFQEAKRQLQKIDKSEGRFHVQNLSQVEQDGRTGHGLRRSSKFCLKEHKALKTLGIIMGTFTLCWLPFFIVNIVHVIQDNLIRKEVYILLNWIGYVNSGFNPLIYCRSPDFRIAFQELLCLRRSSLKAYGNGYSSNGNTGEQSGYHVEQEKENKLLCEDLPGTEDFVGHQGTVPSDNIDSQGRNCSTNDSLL

[4] = target: T2, Beta-3 adrenergic receptor; assay: Agonistic activity against the cloned human Beta-3 adrenergic receptor was measured by its by its ability to stimulate adenylyl cyclase; format: functional
Target sequence in this assay (P13945 whole entry): as the sequence (P13945 whole entry, looked up) above

[5] = target: T1, Beta-1 adrenergic receptor; assay: Inhibitory activity against cloned human Beta-1 adrenergic receptor in the presence of [125I]iodocyanopindolol in CHO cells by receptor binding assay; format: cell-based
Target sequence in this assay (P08588 whole entry): as the sequence (P08588 whole entry) above

[6] = target: T1, Beta-1 adrenergic receptor; assay: Adenylyl cyclase activation expressed as percent of maximal stimulation with isoproterenol against the cloned human Beta-1 adrenergic receptor 10 uM; format: functional
Target sequence in this assay (P08588 whole entry, looked up): as the sequence (P08588 whole entry) above

[7] = target: T3, Beta-2 adrenergic receptor; assay: Adenylyl cyclase activation expressed as percent of maximal stimulation with isoproterenol against the cloned human Beta-2 adrenergic receptor at 10 uM; format: functional
Target sequence in this assay (P07550 whole entry, looked up): as the sequence (P07550 whole entry) above

[8] = target: T1, Beta-1 adrenergic receptor; assay: Inhibitory activity against cloned human Beta-1 adrenergic receptor in the presence of [125I]iodocyanopindolol expressed in CHO cells by receptor binding assay; format: cell-based
Target sequence in this assay (P08588 whole entry): as the sequence (P08588 whole entry) above

[9] = Oral bioavailability in dog; format: ADME, organism-based, Canis lupus familiaris; settings: in vivo
Monkey = assay: Compound was tested for agonistic activity for glycerolemia in rhesus monkey; format: functional; settings: Cercopithecidae, in Macaca mulatta
[10] = target: T3, Beta-2 adrenergic receptor; assay: Agonistic activity against the cloned human Beta-2 adrenergic receptor was measured by its by its ability to stimulate adenylyl cyclase; format: functional
Target sequence in this assay (P07550 whole entry): as the sequence (P07550 whole entry) above

[11] = Oral bioavailability in rat; format: ADME, organism-based; settings: in vivo
[12] = target: T1, Beta-1 adrenergic receptor; assay: Adenylyl cyclase activation expressed as percent of maximal stimulation with isoproterenol at the cloned human Beta-1 adrenergic receptor at 10 uM; format: functional
Target sequence in this assay (P08588 whole entry, looked up): as the sequence (P08588 whole entry) above

[13] = target: T2, Beta-3 adrenergic receptor; assay: Inhibitory activity against cloned human Beta-3 adrenergic receptor in the presence of [125I]iodocyanopindolol expressed in CHO cells by receptor binding assay; format: cell-based
Target sequence in this assay (P13945 whole entry): as the sequence (P13945 whole entry, looked up) above

[14] = target: T3, Beta-2 adrenergic receptor; assay: Adenylyl cyclase activation expressed as percent of maximal stimulation with isoproterenol at the cloned human Beta-2 adrenergic receptor at 10 uM; format: functional
Target sequence in this assay (P07550 whole entry, looked up): as the sequence (P07550 whole entry) above

[15] = Compound was evaluated for the half-life (t 1/2) in hours; format: ADME, organism-based, Canis lupus familiaris; settings: dog, in vivo
[16] = Oral bioavailability in dog (p.o. dosing of 0.05 M citric acid/0.05 M hydrochloric acid solution); format: ADME, organism-based, Canis lupus familiaris; settings: in vivo

Row | SMILES | EC50 [1] [nM] | Activation [2] [%] | IC50 [3] [nM] | EC50 [4] [nM] | IC50 [5] [µM] | half-life [15] [min] | bioavailability [16] [%] | other results
1 | CCCCCCCCn1nnn(-c2ccc(S(=O)(=O)Nc3ccc(CCNC[C@H](O)c4cccnc4)cc3)cc2)c1=O | 370 | 57 | 570 | 6.3 | 1.4 | – | – | –
2 | CCCCCCn1nnn(-c2ccc(S(=O)(=O)Nc3ccc(CCNC[C@H](O)c4cccnc4)cc3)cc2)c1=O | – | 67 | 3300 | 30 | 5 | – | – | Activation [6]: 19%; Activation [7]: 9%
3 | O=c1n(CCCC2CCCC2)nnn1-c1ccc(S(=O)(=O)Nc2ccc(CCNC[C@H](O)c3cccnc3)cc2)cc1 | 1900 | 75 | 1600 | 13 | – | – | – | IC50 [8]: 3.4 µM; bioavailability [9]: 27%; ED50 (Monkey): 0.21 mg/kg; EC50 [10]: 1800 nM; bioavailability [11]: 27%; Activation [12]: 33%; IC50 [13]: 92 nM; Activation [14]: 26%
4 | O=C1N(CCCC2CCCC2)CCN1c1ccc(S(=O)(=O)Nc2ccc(CCNC[C@H](O)c3cccnc3)cc2)cc1 [L-766892] | – | – | – | – | – | 210 | 17 | –
5 | CCCCCCn1ccn(-c2ccc(S(=O)(=O)Nc3ccc(CCNC[C@H](O)c4cccnc4)cc3)cc2)c1=O [L-764646] | – | – | – | – | – | 216 | 12 | –
